Experiments:
[1] = tested on: human bone marrow-derived mesenchymal stem cells; test: Proliferation of mesenchymal stem cells in the presence of 2% serum (viable cell number); assay type: cell-based; settings: 10 μM or 50 μM
Description: Bone marrow aspirates were taken from normal adult donors after an informed consent was signed. Bone marrow mesenchymal stem cells were prepared by a widely used technique as described earlier by others. Pittenger, M. F., Mackay, A. M., Beck, S. C., Jaiswal, R. K., Douglas, R., Mosca, J. D., Moorman, M. A., Simonetti, D. W., Craig, S. and Marshak, D. R., “Multilineage potential of adult human mesenchymal stem cells,” Science, 284, 143-147 (1999). […] When cells grew to about 80% confluence, they were suspended and harvested by incubating with a ready-made solution containing 0.25% trypsin and 1 mM EDTA (Sigma-Aldrich, St. Louis, Mo.) for 5 minutes at 37° C.; this cell suspension is designated as passage 1. […]
The total numbers of nucleated and viable cells were determined with a hemocytometer, using Turck's solution and trypan blue stain, respectively. […]
In the experiments reported in Table 7 and Table 8, human bone marrow-derived mesenchymal stem cells were split at 1:3 and then incubated for 24 hours in 10% fetal calf serum-containing medium to about 30-35% confluence. […] The data are expressed as mean values±std. dev. of 3 determinations.

healthy mice = test: Toxicity in healthy mice; assay type: in vivo; settings: 1,000-1,500 μmole doses
[2] = tested on: granulocyte-macrophage colony-forming units (CFU-GM); test: Recovery of bone marrow function after sublethal whole body irradiation (nucleated BM cells, CFU-GM assay); assay type: in vivo, C57B1 mice; settings: for CFU-GM per femur / CFU-GM/10^5 nucleated BM cells: CCompound1 4.5 mg per kg i.p. daily, day -3 to day +3; for CFU-GM/10^5 nucleated BM cells: colonies counted on day 7 of culture
Description: This experiment served to determine if CCompound1 was able to promote regeneration of partially ablated bone marrow from endogenous stem cells i.e. promote restoration of the capacity of bone marrow to produce blood cells. The CFU-GM assay was performed because the number of CFU-GM per femur is a good indicator of bone marrow regeneration. Ballestrero, A., Ferrando, F., Garuti, A., Basta, P., Gonella, R., Stura, P., Mela, G. S., Sessarego, M, Gobbi, M. and Patrone, F., “Comparative effects of three cytokine regimens after high-dose cyclophosphamide: Granulocyte colony-stimulating factor, granulocyte-macrophage colony-stimulating factor (GM-CSF), and sequential interleukin-3 and GM-CSF,” J. Clin. Oncol., 17, 1296-1303 (1999).
C57B1 female (10-14 weeks old) mice received sublethal (250 cGy) whole body irradiation from a ^137Cesium source (day 0). Starting three days before irradiation, animals received daily 4.5 mg per kg of CCompound1 via intraperitoneal injection; this treatment also was provided on day 0 and once daily for three days subsequent to irradiation. In another group, mice were injected only with physiological saline. The subsequent procedure has been reported in Vas, V., Fajka-Boja, R., Ion, G. A., Dudics, V., Monostori, E. and Uher, F., “Biphasic effect of recombinant Galectin-1 on the growth and death of early hematopoietic cells,” Stem Cells, 23, 279-287 (2005). Briefly, bone marrow was flushed from the femurs with Iscove's modified Dulbecco's medium (Gibco BRL, Gaithersburg, Md., USA), and after standard erythrocyte lysis, nucleated cells were counted using a hemocytometer. […] To measure the formation of the granulocyte-macrophage colony-forming units (CFU-GM), a semisolid colony-forming cell assay was used. Nucleated bone marrow cells (isolated on the days as indicated above) were plated in 35-mm Petri dishes (Costar, Cambridge, Mass., USA) in Iscove's modified Dulbecco's medium supplemented with 1% methylcellulose, 30% horse serum (Gibco), 10% WEHI-3B conditioned medium as a source of growth factors, 4 mM L-glutamine, 0.25 mM a-thioglycerol (Gibco), 1% deionized bovine serum albumine (Sigma), and antibiotics (Gibco). Cells were cultured at 37° C. in 5% CO2/95% air atmosphere and colonies were counted on day 7 in the same dish. Colonies containing at least 50 cells were counted which is a generally accepted value in the literature. Each value represents the mean±st. dev. of 9 samples (3 parallel dishes from each animal).

[3] = day 3 after 250 cGy irradiation
[4] = day 6 after 250 cGy irradiation
[5] = day 10 after 250 cGy irradiation

Cc1c(OCC(O)C[N+](C)(C)C)cc2c(=O)c3ccccc3sc2c1C.[Cl-] (stereo not drawn) [CCcompound1, [3-(3,4-Dimethyl-9-oxo-9H-thioxanthen-2-yloxy)-2-hydroxypropyl]trimethyl-ammonium chloride]
effect on the proliferation of stem cells [1]: no direct stimulatory effect
tissue alterations at high doses (healthy mice): mild parenchymal degeneration in the heart, focal hypostasis and chronic bronchopneumonia
CFU-GM per femur [2, 3]: 508
CFU-GM/10^5 nucleated BM cells [2, 3]: 87.8 ± 9.0
CFU-GM per femur [2, 4]: 713
CFU-GM/10^5 nucleated BM cells [2, 4]: 92.3 ± 7.2
CFU-GM per femur [2, 5]: 1,081
CFU-GM/10^5 nucleated BM cells [2, 5]: 94.4 ± 8.1
effect on number of nucleated bone marrow cells and CFU-GM ([2]; from the third day on after sublethal irradiation): enhanced the number of nucleated bone marrow cells and CFU-GM

From US7781423B2, “Compounds to promote regeneration of bone marrow” (priority 2007, dated 2010)
